Test results taken from US20220324835A1 (Nurix Therapeutics, Inc., priority 2018, published 2022).

How the values were obtained:
T-cell [1] = assay: CD25 cell surface staining on T-cells co-stimulated with anti-CD3 and anti-CD28 antibody (Biological Example 2); assay type: cell-based, human; conditions: Homo sapiens, T-cell, fold change over baseline, primary human total T-cells, read-out: CD25 staining Anti-CD3/Anti-CD28 stimulation; for fold induction at 0.3 µM: 0.3 μM Cbl-b inhibitor; for fold induction at 1 µM: 1 μM Cbl-b inhibitor; for fold induction at 4 µM: 4 μM Cbl-b inhibitor
In short: (§1)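 Values are fold-change over baseline: readings (IL-2 release, CD25 staining) from inhibitor-treated T-cells divided against untreated cells […]. No detailed procedure stated.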

T-cell [2] = assay: CD25 cell surface staining on T-cells stimulated with anti-CD3 antibody alone (Biological Example 2); assay type: cell-based, human; conditions: T-cell, fold change over baseline, primary human total T-cells, read-out: CD25 staining Anti-CD3 stimulation; for fold induction at 1 µM: 1 μM Cbl-b inhibitor; for fold induction at 8 µM: 8 μM Cbl-b inhibitor
Cbl-b [3] = molecular target: T1, Cbl-b (Homo sapiens, UniProt Q13191); assay: Cbl-b activity assay (Cbl-b inhibition assay), TR-FRET of Cbl-b interaction with UbcH5B-Ub; assay type: biochemical; conditions: assay buffer with 100 mM NaCl, 60 nM Src kinase; read-out: Cbl-b activity IC50
T1 sequence (Q13191 36-427): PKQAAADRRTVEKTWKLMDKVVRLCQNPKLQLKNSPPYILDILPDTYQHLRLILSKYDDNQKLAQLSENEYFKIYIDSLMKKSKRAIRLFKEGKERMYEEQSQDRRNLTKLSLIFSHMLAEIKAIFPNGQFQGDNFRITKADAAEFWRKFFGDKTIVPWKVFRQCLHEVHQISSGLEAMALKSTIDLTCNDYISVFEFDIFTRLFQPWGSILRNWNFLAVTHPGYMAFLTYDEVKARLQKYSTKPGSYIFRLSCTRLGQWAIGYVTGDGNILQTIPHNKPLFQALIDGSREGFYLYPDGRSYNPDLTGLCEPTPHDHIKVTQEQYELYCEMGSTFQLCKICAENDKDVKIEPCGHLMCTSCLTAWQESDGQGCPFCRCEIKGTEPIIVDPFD
In short: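 Compound-treated Cbl-b was incubated 1.5 h with Src kinase (60 nM final; 30 nM for asterisked values, which also used 50 mM instead of 100 mM NaCl), 1 mM ATP and 5 mM MgCl2. Binding to fluorescent Ub-loaded UbcH5B (C85K mutant) was then read by TR-FRET after 1 h more.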

T-cell [4] = assay: IL-2 secretion from T-cells stimulated with anti-CD3 antibody alone (Biological Example 2); assay type: cell-based, human; conditions: T-cell, fold change over baseline, primary human total T-cells, read-out: IL-2 secretion Anti-CD3 stimulation; for fold induction at 1 µM: 1 μM Cbl-b inhibitor; for fold induction at 8 µM: 8 μM Cbl-b inhibitor
T-cell [5] = assay: IL-2 secretion from T-cells co-stimulated with anti-CD3 and anti-CD28 antibody (Biological Example 2); assay type: cell-based, human; conditions: Homo sapiens, T-cell, fold change over baseline, primary human total T-cells, read-out: IL-2 secretion Anti-CD3/Anti-CD28 stimulation; for fold induction at 0.3 µM: 0.3 μM Cbl-b inhibitor; for fold induction at 1 µM: 1 μM Cbl-b inhibitor; for fold induction at 4 µM: 4 μM Cbl-b inhibitor
In short: as §1

Cbl-b (residues 36-427) = Cbl-b (residues 36-427) (Homo sapiens, UniProt Q13191); assay: Cbl-b binding assay (SPR, Biacore T200); conditions: 20° C., 1:1 binding model
Cbl-b (residues 36-427), sequence (Q13191 36-427): as above
In short: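 NeutrAvidin capture chip, 20° C; 50 s injections at 50 μl/min, 90-180 s dissociation; 0.3 M NaCl regeneration. Asterisked column: 50 mM NaCl buffer and 30 nM Src kinase in place of 100 mM NaCl and 60 nM Src kinase. 1:1 fit.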

Cbl-b [6] = molecular target: T1, Cbl-b; assay: Cbl-b inhibition assay (Cbl-b activity assay, FRET, Biological Example 1; 100 mM NaCl, 60 nM Src kinase); assay type: biochemical; conditions: upper bound stated in text lists; read-out: IC50 values in the Cbl-b inhibition assay of Biological Example 1
In short: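 Inhibition is read as loss of FRET signal. The signal arises when Src-phosphorylated, N-terminal biotinylated Avi-Cbl-b (captured by streptavidin-terbium) binds UbcH5B carrying covalently linked Bodipy-Fluorescein-tagged ubiquitin.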

Structure (SMILES) | fold induction at 0.3 µM (T-cell [1]) | fold induction at 1 µM (T-cell [1]) | fold induction at 4 µM (T-cell [1]) | fold induction at 1 µM (T-cell [2]) | fold induction at 8 µM (T-cell [2]) | IC50 (Cbl-b [3]) | fold induction at 1 µM (T-cell [4]) | fold induction at 8 µM (T-cell [4]) | fold induction at 0.3 µM (T-cell [5]) | fold induction at 1 µM (T-cell [5]) | fold induction at 4 µM (T-cell [5]) | Kd (Cbl-b (residues 36-427)) | IC50 (Cbl-b [6])
C[C@H](Cc1nncn1C)c1cc(N[C@H]2CCOC2)nc(N2Cc3c(cccc3C(F)(F)F)C2=O)c1 (stereo in doubt) [Compound 361, 2-(4-((R)-1-(4-methyl-4H-1,2,4-triazol-3-yl)propan-2-yl)-6-((R)-THF-3-ylamino)pyridin-2-yl)-4-(trifluoromethyl)isoindolin-1-one] | < 1 | 1.01 to 1.3 | 1.01 to 1.3 | 0.601 to 0.8 | 0.801 to 1 | 301 to 1000 nM | 0.051 to 0.1 | 0.151 to 0.2 | 1.01 to 2.5 | 1.01 to 2.5 | 1.01 to 2.5 | 301 to 1000 nM | 
CC(Cc1n[nH]cc1CO)c1cccc(N2Cc3c(cccc3C(F)(F)F)C2=O)c1 (stereo not drawn) [Compound 271, 2-(3-(1-(4-(hydroxymethyl)-1H-pyrazol-3-yl)propan-2-yl)phenyl)-4-(trifluoromethyl)isoindolin-1-one] |  |  |  |  |  | 3000 to 10000 nM |  |  |  |  |  | 3000 to 10000 nM | ≤ 10000 nM
C[C@H](Cc1nncn1C)c1cccc(N2Cc3c(cc(C(=O)O)cc3C(F)(F)F)C2=O)c1 [Compound 273, (R)-2-(3-(1-(4-methyl-4H-1,2,4-triazol-3-yl)propan-2-yl)phenyl)-3-oxo-7-(trifluoromethyl)isoindoline-5-carboxylic acid] |  |  |  |  |  | 1000 to 3000 nM |  |  |  |  |  | 3000 to 10000 nM | ≤ 10000 nM
C[C@H](Cc1nncn1C)c1cc(N2Cc3c(cccc3C(F)(F)F)C2=O)ccc1F [Compound 280, 2-[4-fluoro-3-[(1R)-1-methyl-2-(4-methyl-1,2,4-triazol-3-yl)ethyl]phenyl]-4-(trifluoromethyl)isoindolin-1-one] |  |  |  |  |  | 3000 to 10000 nM |  |  |  |  |  | 1000 to 3000 nM | ≤ 10000 nM
C[C@@H](Cc1nncn1C)c1cc(F)cc(N2Cc3c(cccc3C(F)(F)F)C2=O)c1 [Compound 281b, 2-[3-Fluoro-5-[(1S)-1-methyl-2-(4-methyl-1,2,4-triazol-3-yl)ethyl]phenyl]-4-(trifluoromethyl)isoindolin-1-one] |  |  |  |  |  | 3000 to 10000 nM |  |  |  |  |  | 100 to 300 nM | ≤ 10000 nM
CC(c1cccc(NC(=O)c2ccc(CO)c(C3CC3)n2)c1)C(F)(F)c1nncn1C (stereo not drawn) [Compound 287, 6-cyclopropyl-N-(3-(1,1-difluoro-1-(4-methyl-4H-1,2,4-triazol-3-yl)propan-2-yl)phenyl)-5-(hydroxymethyl)picolinamide] |  |  |  |  |  | 100 to 300 nM |  |  |  |  |  | 1000 to 3000 nM | ≤ 500 nM
CC(c1cccc(N2Cc3c(cccc3C(F)(F)F)C2=O)c1)C(F)(F)c1nncn1C (stereo not drawn) [Compound 294, 2-(3-(1,1-difluoro-1-(4-methyl-4H-1,2,4-triazol-3-yl)propan-2-yl)phenyl)-4-(trifluoromethyl)isoindolin-1-one] |  |  |  |  |  | 301 to 1000 nM |  |  |  |  |  | < 100 nM | ≤ 500 nM
Cn1cnnc1C(F)(F)C(C)(O)c1cccc(N2Cc3c(cccc3C(F)(F)F)C2=O)c1 (stereo not drawn) [Compound 295, 2-(3-(1,1-difluoro-2-hydroxy-1-(4-methyl-4H-1,2,4-triazol-3-yl)propan-2-yl)phenyl)-4-(trifluoromethyl)isoindolin-1-one] |  |  |  |  |  | 3000 to 10000 nM |  |  |  |  |  | 1000 to 3000 nM | ≤ 10000 nM
Cn1cnnc1C[C@@](C)(F)c1cccc(N2Cc3c(cccc3C(F)(F)F)C2=O)c1 [Compound 298a, (R)-2-(3-(2-fluoro-1-(4-methyl-4H-1,2,4-triazol-3-yl)propan-2-yl)phenyl)-4-(trifluoromethyl)isoindolin-1-one] |  |  |  |  |  | 1000 to 3000 nM |  |  |  |  |  | 3000 to 10000 nM | ≤ 10000 nM
C[C@H](Cc1nncn1C)c1ccnc(NC(=O)c2ccc3ccccc3n2)c1 [Compound 303, (R)-N-(4-(1-(4-methyl-4H-1,2,4-triazol-3-yl)propan-2-yl)pyridin-2-yl)quinoline-2-carboxamide] |  |  |  |  |  | 301 to 1000 nM |  |  |  |  |  | 3000 to 10000 nM | ≤ 1000 nM
C[C@@H](Cc1nncn1C)c1ccnc(N2Cc3c(cccc3C(F)(F)F)C2=O)c1 [Compound 304a, (S)-2-(4-(1-(4-methyl-4H-1,2,4-triazol-3-yl)propan-2-yl)pyridin-2-yl)-4-(trifluoromethyl)isoindolin-1-one] |  |  |  |  |  | 3000 to 10000 nM |  |  |  |  |  | > 10000 nM | ≤ 10000 nM
CNC(=O)COc1ccc2cnc(C(=O)Nc3cccc([C@H](C)Sc4nncn4C)c3)cc2c1 [Compound 306a, (S)-N-(3-(1-(4-methyl-4H-1,2,4-triazol-3-ylthio)ethyl)phenyl)-6-(2-(methylamino)-2-oxoethoxy)isoquinoline-3-carboxamide] | 1.01 to 1.3 | 1.01 to 1.3 | 1.01 to 1.3 | < 0.6 | 0.801 to 1 | 100 to 300 nM | < 0.05 | < 0.05 | < 1 | 1.01 to 2.5 | 1.01 to 2.5 | 100 to 300 nM | 
C[C@H](Sc1nncn1C)c1cccc(NC(=O)c2cc3cc(OCc4ccn[nH]4)ccc3cn2)c1 [Compound 307, (S)-6-((1H-pyrazol-5-yl)methoxy)-N-(3-(1-((4-methyl-4H-1,2,4-triazol-3-yl)thio)ethyl)phenyl)isoquinoline-3-carboxamide] | < 1 | < 1 | 1.01 to 1.3 | < 0.6 | < 0.6 | 100 to 300 nM | 0.051 to 0.1 | 0.101 to 0.15 | 1.01 to 2.5 | 1.01 to 2.5 | 2.51 to 5 | 301 to 1000 nM | 
C[C@H](Cc1nncn1C)c1cccc(NC(=O)c2[nH]nc3c2CCCC3)c1 [Compound 327, (R)-N-(3-(1-(4-Methyl-4H-1,2,4-triazol-3-yl)propan-2-yl)phenyl)-4,5,6,7-tetrahydro-2H-indazole-3-carboxamide] | 1.01 to 1.3 | 1.01 to 1.3 | 1.01 to 1.3 | 0.601 to 0.8 | 0.801 to 1 | 301 to 1000 nM | 0.051 to 0.1 | 0.051 to 0.1 | 1.01 to 2.5 | 1.01 to 2.5 | 1.01 to 2.5 | 1000 to 3000 nM | 
Cc1ccc(C(=O)Nc2cccc([C@@H](C)Cc3nccn3C)c2)nc1C1CC1 [Compound 331] | < 1 | < 1 | 1.01 to 1.3 | < 0.6 | 0.601 to 0.8 | 301 to 1000 nM | < 0.05 | 0.051 to 0.1 | 1.01 to 2.5 | 1.01 to 2.5 | 1.01 to 2.5 | 1000 to 3000 nM | 
C[C@H](Cc1nncn1C)c1cccc(N2Cc3c(cc(CN4CC[C@H](O)C4)cc3C(F)(F)F)C2=O)c1 [Compound 394, 6-(((S)-3-hydroxypyrrolidin-1-yl)methyl)-2-(3-((R)-1-(4-methyl-4H-1,2,4-triazol-3-yl)propan-2-yl)phenyl)-4-(trifluoromethyl)isoindolin-1-one] |  |  |  |  |  | < 100 nM |  |  |  |  |  | < 100 nM | ≤ 100 nM
CCCOc1cc([C@H](C)Cc2nncn2C)cc(N2Cc3c(cccc3C(F)(F)F)C2=O)n1 [Example 688, (R)-2-(4-(1-(4-methyl-4H-1,2,4-triazol-3-yl)propan-2-yl)-6-propoxy-pyridin-2-yl)-4-(trifluoromethyl)isoindolin-1-one] |  |  |  |  |  | 301 to 1000 nM |  |  |  |  |  | 1000 to 3000 nM | ≤ 1000 nM
